The source of these data is a melting point compilation (Tetko et al.; mined from patent text by program, amines drawn as free bases though some values may be those of a salt).

By melting point is commonly meant the temperature, or range, at which the solid turns liquid. `O=C1CCCc2cc(O)c(Cl)c(Cl)c21` showed a melting point of 244 to 246 °C. Turning to `OCC1CCC2=C(Cc3ccccc32)C1CN1CCCCC1CO` (centres undefined), the melting point fell in the range of 151 to 159 °C. For `Cc1ccc(C(=O)c2ccn(C)c2C)cc1` the value was 80 to 82 °C; for `CCOC(=O)c1c(-c2ccc(Cl)cc2)[nH]c(C(F)(F)F)c1C(F)(F)F`, 138 to 140 °C; for `CCCCCCCCCCCCCCCCOC(=O)c1cc(C(=O)OCCCCCCCCCCCCCCCC)cc(S(=O)(=O)Cl)c1`, 48 to 50 °C. For `CC(C)(C)c1cc(-c2csc(CNC(=O)c3ccccc3)n2)cc(C(C)(C)C)c1O` the value was 200 to 201 °C; for `Cc1cc(F)ccc1-n1c(CF)nc2ccc(N)cc2c1=O`, 193 to 196 °C; for `COC(=O)CC[C@@H](NC(=O)[C@@H](NC(=O)OC(C)(C)C)[C@@H](C)OCc1ccccc1)C(N)=O`, 131 to 132 °C.

With `CNC(=O)c1cc(Oc2ccc3c(C(=O)Nc4cccc(C(F)(F)F)c4)cccc3c2)ccn1`, the melting point is 175 to 177 °C. For `O=C(O)Cc1cc([N+](=O)[O-])ccc1Sc1ccccc1` the value was 138 to 140 °C; for `Cc1cc(C)c(S(=O)(=O)NCCCCOc2ccc(-n3ccnc3)cc2)c(C)c1`, 130 to 131 °C. The same measure for `CCCCCCCCCCOc1cc(OCCCCCCCCCC)cc(N(CC(=O)OC)CC(=O)OC)c1`: 36 to 38 °C; for `Cc1c(Nc2c(I)cncc2C#N)ccc2[nH]ccc12`: 192 to 194 °C. Take `CC(C)c1ncc(CCCOc2nn(C)cc2CC(=O)O)c(Oc2ccc(Cl)cc2Cl)n1`: the melting point lay within 107 to 108 °C. On to `Nc1ccc2cccc(Oc3cc(-c4ccc(C(F)(F)F)cc4N)ncn3)c2n1`, for which the melting point was in the range of 233 to 234 °C. The compound `CCCCSc1nnc(-c2ccc(N)cc2)s1` came in with a melting point of 91 °C. For `Cc1cc(-c2cnn3c(C(F)(F)F)cc(-c4ccc(F)c(Cl)c4)nc23)cc(C)n1` the value was 271 °C. In turn, `CN1CCN(C(=O)c2cc3c4ccccc4n(C)c3s2)CC1` came in with a melting point of 219 to 220 °C.

Regarding `CC(=O)Oc1ccc2c(c1)C(C)c1cc(OC(C)=O)ccc1-2`, the melting point lay in the range of 139 to 140 °C. Compound `OCC1CC(O)C(n2c(NC3CC3)nc3cc(Cl)c(Cl)cc32)C1` (centres undefined) displayed a melting point of 251 to 253 °C. The same measure for `Nc1nc2c(s1)CCN(CC=Cc1ccc(Cl)cc1)CC2`: 145 to 150 °C; for `CC(C)Oc1ccc(C=C2CCn3c2nc2cc(NC(=O)C(=O)O)ccc2c3=O)cc1`: 225 to 229 °C. The same measure for `OCc1cc(Cl)c(F)cn1`: 50 to 52 °C; for `OC(CCc1c[nH]cn1)(c1ccccc1)c1ccccc1`: 189 to 191 °C; for `O=C1c2ccc(S(=O)(=O)c3ccccc3)cc2C(=O)c2cc3ccccc3cc21`: more than 260 °C. `COc1cc(NC(C)=O)c([N+](=O)[O-])cc1C(=O)O` came in with a melting point of 186 to 188 °C.

Turning to `Cc1cccc(NC(=O)c2ccc3nc(NC4CCN(C)CC4)n(Cc4nc(C)ccc4O)c3c2)c1`, the melting point stood at 172 °C. The same measure for `CC1(C)OC(C=Cc2cccc(C#N)c2)=CC1=O`: 155 to 157 °C. `Cc1[nH]ncc1C(=O)O` yielded a melting point of 223 °C. The same measure for `CCC(CC)OC(=O)c1ccc(C(=O)NS(=O)(=O)c2ccc(CCNC(=O)c3cc(OC)ccc3Cl)cc2)cn1`: 174 to 176 °C; for `Cc1ccc(S(=O)(=O)N2CCCC(CCl)C2)cc1` (centres undefined): 100 to 102 °C; for `CCOC(=O)NCC(C)C(NC(=O)OCC)NC(=O)OCC` (centres undefined): 138 to 140 °C. The same measure for `CC(=O)Nc1ccc(F)cc1SCC#N`: 97 to 100 °C; for `CSc1nccc(-c2c(-c3ccc(F)cc3)ncn2C2CCN(C)CC2)n1`: 181 to 182 °C; for `CCOc1ccc(OCC(N)=O)c(C(Nc2ccc(C(=N)N)cc2)C(=O)O)c1` (racemic): 266 °C. As to `CC(C)(C)c1ccc(C2(C(N)=O)CC2)cc1`, the melting point was 178 to 180 °C. For `NS(=O)(=O)c1ccc(-c2cccc(-c3nc(-c4ccc(Cl)c(Cl)c4)cc(C(F)(F)F)n3)c2)s1`, the melting point is 203 °C. For the compound `CCOC(=O)C(Cc1ccc(C(=O)C(C)(C)C)cc1)(Cc1ccc(C(=O)C(C)(C)C)cc1)C(=O)OCC`, the melting point was in the range of 65 to 67 °C.

`CC1(C)OC(C=Cc2ccsc2)=CC1=O` returned a melting point of 79 to 80 °C. For `O=c1c2cc(O)c(O)cc2c2cc(O)c(O)cc2n1CCCc1ccccc1` the value was 155 to 158 °C. For `CS(=O)(=O)c1ccc(C(=O)O)c(F)c1` the value was 187 to 188 °C; for `O=C(NCc1ccccc1C(=O)O)c1cccc(/C=C/c2nc(C3CCC3)cs2)c1`, 185 to 187 °C; for `COC(=O)c1ccc(CNC(=O)OCc2ccccc2)cc1OCc1ccccc1`, 106 to 107 °C. `CCCCCCCC/C=C\CCCCCCCC1=C(O)C(=O)C=C(OC)C1=O`: the melting point lay in the range of 69.5 to 70.5 °C. On to `Cn1ccnc1Sc1ccc(Nc2c(C#N)cnc3cc(/C=C/CN4CCCC4)ccc23)cc1Cl`, for which the melting point was in the range of 182 to 190 °C. For `CCCCn1cncc1C(O)(c1ccc(Cl)cc1)c1ccc2c(c1)c(-c1cccc(Cl)c1)cc(=O)n2C` (centres undefined) the value was 175 °C; for `COC(=O)c1ccc(-c2nc(-c3ccc(C(C)C)cc3)cs2)cc1`, 134 to 135 °C.

In turn, `CCNC1CCN(c2c(F)cc3c(=O)c(C(=O)O)cn(C4CC4)c3c2F)C1` (centres undefined) registered a melting point of 236 to 238 °C. The same measure for `CC(C)(C)OC(=O)N1CCC(CC[C@@H]2CCCNC2=O)CC1`: 110 to 111 °C; for `O=C1CCCCC1c1ccccc1F` (centres undefined): 47 to 49 °C.

Compound `CCCCCCCCCCCCCCCCCCOCc1ccc(C(=O)O)cc1OCCCCCCCCCCCCCCCCCC` registered a melting point of 87 to 88 °C. On to `CN(C)CCCN1c2ccccc2C(c2ccccc2F)=Nc2cccnc21`, for which the melting point was 92 to 94 °C. `CC(=O)OC1CSC(Sc2ccccc2C#N)C(OC(C)=O)C1OC(C)=O` (centres undefined) yielded a melting point of 160 °C. `Cc1nc(Sc2ncccc2C(F)(F)F)sc1CC(=O)O` gave a melting point of 195 to 196 °C.

Compound `N#CCc1c(Cl)cccc1Br` gave a melting point of 82 to 84 °C.

Regarding `COC(=O)CCc1cc2cc(Cl)ccc2n1S(=O)(=O)c1ccc(C(C)(C)C)cc1`, the melting point fell in the range of 130 to 133 °C. As for `CON=C(C#N)c1ccccc1COc1ccc(Cl)cc1`, the melting point fell in the range of 69 to 71 °C. For `CN1CCN(c2ccc(F)cc2C=C2CCCN(c3ccc(Cl)c(Cl)c3)C2=O)CC1` the value was 161 to 162 °C; for `CC(C)C(=O)NC(c1ccc(C=O)cc1)C(F)(F)F` (centres undefined), 132 to 133 °C; for `O=C(Nc1ccc(Oc2ccnc(NCC3CC3)n2)c2ccccc12)c1cc(F)cc(N2CCCCC2)c1`, 117 to 119 °C. Consider `NC(=O)COc1c(-c2ccccc2)c(=O)[nH]c2cc(Cl)ccc12`, for which the melting point was in the range of 262 to 264 °C.

Consider `N=C(Nc1ccccc1)Nc1ncccc1OCc1c(F)cccc1F`, for which the melting point was in the range of 136 to 137 °C. Compound `C=CCOc1ccc(C2=NNC(=O)CC2)cc1` had a melting point of 130 to 132 °C. For `O=C1c2ccccc2C(O)N1CCN1CCC(c2noc3cc(F)ccc23)CC1` (centres undefined) the value was 172 to 173 °C; for `COc1cc(OC)cc(C2(O)C(=O)Nc3ccc(Cl)cc32)c1` (centres undefined), 191 °C. The same measure for `O=C(O)Cn1cc(Cc2nc3c(F)c(F)cc(F)c3s2)c2cccc(Br)c21`: 228 to 230 °C; for `CS(=O)(=O)Nc1cc2occ(NS(C)(=O)=O)c(=O)c2cc1Oc1ccccc1`: 199 to 200 °C. For `O=C1CCCCCC1n1nc(-c2c(-c3ccccc3)nn3ccccc23)ccc1=O` (centres undefined) the value was 112 to 114 °C. For `N#Cc1c(N2CCCCC2)cccc1[N+](=O)[O-]`, the melting point lay in the range of 119 to 121 °C. For `CC(C)C(O)(C#C[Si](C)(C)C)c1cncnc1` (centres undefined) the value was 117 °C. Take `C[C@H](OC(=O)NCCC(F)(F)C(F)(F)F)C(=O)N[C@@H]1C(=O)N(CCO)c2ccccc2-c2ccccc21`: the melting point was in the range of 181 to 184 °C. `CCOC(=O)C(=O)Nc1ccc(C(=O)O)cc1NC(=O)C(=O)OCC`: the melting point stood at 251 °C. `CCOC(=O)c1cc2cc(N=[N+]=[N-])ccc2[nH]1`: the melting point was determined as 140 °C. For `CC(C)c1nc(C(C)C)c(CNC2CC2)c(-c2ccc(F)cc2)c1CO` the value was 81 to 83 °C; for `Nc1ccccc1OC1CCCCC1`, 55 to 56 °C. Take `O=C(c1c(F)cccc1F)n1c(-c2c(F)cccc2F)nc2ccccc21`: the melting point amounted to 145 °C. For `CN1C(=O)CCC(=O)N1c1cc(-c2ccnc(Nc3cccc(Cl)c3)n2)ccn1` the value was 201 to 204 °C; for `CCCCCCCNC(=O)N(C)c1cccc(-c2cc(F)c(CCC(=O)O)c(F)c2)c1`, 86 °C. In turn, `Cc1ccnc2c(O)cccc12` showed a melting point of 135 to 136 °C.

`CCOC(=O)c1ccc(-c2cc(O)c(C(CC(C)C)SC3CCCC3)c(=O)o2)cc1` (centres undefined) yielded a melting point of 174 to 176 °C. Compound `CC1NC(=O)NN=C1c1ccc2sc(=O)n(CC(=O)N3CCN(CCO)CC3)c2c1` (centres undefined) registered a melting point of 248 to 250 °C. The same measure for `CN1CCC(c2c[nH]c3ccc(NS(=O)(=O)c4cccc5ccccc45)cc23)CC1`: 254 to 256 °C.

Compound `CCOC(=O)c1cnc2cn[nH]c2c1Nc1cccs1` registered a melting point of 188 to 190 °C. The compound `CC1=C(OCC(C)C)CC(C)(C)C1=O` yielded a melting point of 63 °C. The same measure for `Cc1ccc(C=C2CSCC3=C2N(CC(F)(F)F)NC3c2ccc(C)cc2)cc1` (centres undefined): 168 to 178 °C; for `CN1CCN(c2cccc3ccc(-n4cnc5ncccc54)cc23)CC1`: 107 to 112 °C. The same measure for `CCc1cc2c(-c3ccccc3Cl)c(C(=O)O)c(=O)n(C)c2s1`: 155 to 156 °C; for `Oc1ccccc1NC(=S)NCc1ccncc1`: 180 °C. For `O=C(CCCC(Cc1c[nH]c2ccccc12)(NC(=O)OC1C2CC3CC(C2)CC1C3)C(=O)NCCc1ccccc1)OCc1ccccc1` (centres undefined), the melting point was in the range of 115 to 136 °C.
